Measurements as given in PubChem BioAssay (NCI).
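Exposure lasted 48 hours, with cells grown in 96-well plates and compounds tested at five concentrations. At the GI50, growth is halved. At the TGI there is no net growth.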

Experiments:
Experiment in all cases: growth of human tumour cells (NCI), 48 h
[1] = system: UACC-62 melanoma
[2] = system: RXF 393 renal
[3] = system: SNB-75 CNS
[4] = system: MDA-MB-435
[5] = system: SK-MEL-28 melanoma
[6] = system: HL-60(TB) leukemia
[7] = system: NCI-H460 lung
[8] = system: BT-549 breast
[9] = system: CCRF-CEM leukemia
[10] = system: T-47D breast
[11] = system: LOX IMVI melanoma
[12] = system: SN12C renal
[13] = system: SK-OV-3 ovarian
[14] = system: PC-3 prostate
[15] = system: MCF7 breast
[16] = system: UACC-257 melanoma
[17] = system: HOP-92 NSCLC
[18] = system: HS 578T breast
[19] = system: UO-31 renal
[20] = system: COLO 205 colon
[21] = system: OVCAR-5 ovarian
[22] = system: HT29 colon
[23] = system: SF-295 CNS
[24] = system: OVCAR-8 ovarian
[25] = system: OVCAR-3 ovarian
[26] = system: IGROV1 ovarian
[27] = system: A549 NSCLC
[28] = system: OVCAR-4 ovarian
[29] = system: NCI-H226 lung
[30] = system: MDA-MB-468 breast
[31] = system: SW-620 colon
[32] = system: SF-268 CNS
[33] = system: A498 renal
[34] = system: K-562 leukemia
[35] = system: U251 CNS
[36] = system: SF-539 CNS
[37] = system: SR leukemia
[38] = system: HOP-62 NSCLC
[39] = system: 786-0 renal
[40] = system: HCT-116 colon
[41] = system: MDA-MB-231 breast
[42] = system: SK-MEL-2 melanoma
[43] = system: NCI/ADR-RES ovarian
[44] = system: TK-10 renal
[45] = system: MALME-3M melanoma
[46] = system: SNB-19 CNS
[47] = system: MOLT-4 leukemia
[48] = system: HCC-2998 colon
[49] = system: CAKI-1 renal
[50] = system: DU-145 prostate
[51] = system: M14 melanoma
[52] = system: KM12 colon
[53] = system: EKVX NSCLC
[54] = system: HCT-15 colon
[55] = system: ACHN renal
[56] = system: NCI-H522 lung
[57] = system: SK-MEL-5 melanoma
[58] = system: NCI-H23 lung

C=C(C)[C@@H]1CC[C@]2(COP(=O)(OCC)OCC)CC[C@]3(C)[C@H](CC[C@@H]4[C@@](C)(CCCN)[C@H](C(=C)C)CC[C@]43C)[C@@H]12
GI50 [1]: 4.45 µM | TGI [1]: 17.2 µM | GI50 [2]: 3.42 µM | TGI [2]: 15.2 µM | GI50 [3]: 5.01 µM | TGI [3]: 20 µM | GI50 [4]: 4.07 µM | TGI [4]: 17.4 µM | GI50 [5]: 7.84 µM | TGI [5]: 20.2 µM | GI50 [6]: 2.87 µM | TGI [6]: 9.23 µM | GI50 [7]: 3.43 µM | TGI [7]: 14.2 µM | GI50 [8]: 9.88 µM | TGI [8]: 22.2 µM | GI50 [9]: 2.81 µM | TGI [9]: 11.3 µM | GI50 [10]: 3.23 µM | TGI [10]: 13.9 µM | GI50 [11]: 4.77 µM | TGI [11]: 17.2 µM | GI50 [12]: 4.37 µM | TGI [12]: 16.6 µM | GI50 [13]: 13.6 µM | TGI [13]: 28.7 µM | GI50 [14]: 2.24 µM | TGI [14]: 11.4 µM | GI50 [15]: 3.08 µM | TGI [15]: 12 µM | GI50 [16]: 5.55 µM | TGI [16]: 18.3 µM | GI50 [17]: 2.63 µM | TGI [17]: 16.2 µM | GI50 [18]: 4.67 µM | TGI [18]: 24.3 µM | GI50 [19]: 3.58 µM | TGI [19]: 15.2 µM | GI50 [20]: 4.56 µM | TGI [20]: 19.2 µM | GI50 [21]: 10.9 µM | TGI [21]: 22.8 µM | GI50 [22]: 4.03 µM | TGI [22]: 16.2 µM | GI50 [23]: 4.43 µM | TGI [23]: 17.6 µM | GI50 [24]: 6.35 µM | TGI [24]: 23.1 µM | GI50 [25]: 3 µM | TGI [25]: 12.7 µM | GI50 [26]: 11.4 µM | TGI [26]: 23.7 µM | GI50 [27]: 4.45 µM | TGI [27]: 18.5 µM | GI50 [28]: 5.35 µM | TGI [28]: 21.8 µM | GI50 [29]: 5.64 µM | TGI [29]: 22 µM | GI50 [30]: 2.56 µM | TGI [30]: 11.3 µM | GI50 [31]: 3.49 µM | TGI [31]: 15.1 µM | GI50 [32]: 6.46 µM | TGI [32]: 23.8 µM | GI50 [33]: 12.5 µM | TGI [33]: 25.2 µM | GI50 [34]: 3.77 µM | TGI [34]: > 100 µM | GI50 [35]: 6.51 µM | TGI [35]: 20.7 µM | GI50 [36]: 10.4 µM | TGI [36]: 22.1 µM | GI50 [37]: 3.66 µM | TGI [37]: > 100 µM | GI50 [38]: 11.1 µM | TGI [38]: 24.9 µM | GI50 [39]: 5.04 µM | TGI [39]: 19.9 µM | GI50 [40]: 2.92 µM | TGI [40]: 13.2 µM | GI50 [41]: 7.53 µM | TGI [41]: 20.1 µM | GI50 [42]: 9.64 µM | TGI [42]: 22.6 µM | GI50 [43]: 5.45 µM | TGI [43]: 21.7 µM | GI50 [44]: 12 µM | TGI [44]: 25.2 µM | GI50 [45]: 7.16 µM | TGI [45]: 19.7 µM | GI50 [46]: 10 µM | TGI [46]: 21.7 µM | GI50 [47]: 3.27 µM | TGI [47]: 16.1 µM | GI50 [48]: 3.7 µM | TGI [48]: 15.1 µM | GI50 [49]: 4.12 µM | TGI [49]: 17.3 µM | GI50 [50]: 10.9 µM | TGI [50]: 23.8 µM | GI50 [51]: 5.13 µM | TGI [51]: 20.4 µM | GI50 [52]: 4.73 µM | TGI [52]: 17.8 µM | GI50 [53]: 4.88 µM | TGI [53]: 18.5 µM | GI50 [54]: 3.76 µM | TGI [54]: 13.7 µM | GI50 [55]: 5.54 µM | TGI [55]: 18.1 µM | GI50 [56]: 3.01 µM | TGI [56]: 14.1 µM | GI50 [57]: 3.47 µM | TGI [57]: 12.9 µM | GI50 [58]: 4.73 µM | TGI [58]: 17.8 µM
